The test system of test [1] is Empoasca leafhoppers. The test can be described thus: In vivo Empoasca choice assay, compounds infiltrated into irMYC2 leaves. Also noted: species or system Empoasca decipiens. The note with it: synthetic CoP 7 μM, CP 100 μM, FP 10 μM in 0.1% DMSO infiltrated into irMYC2 leaves. As for the experimental part:
The spermi-dine-derived metabolites could be excluded as mediators of Empoasca nonhost resistance based on the lack of responses of leafhoppers to the irDH29 and irCV86 lines (FIG. 5). To further explore the involvement of CoP, CP and FP, in vivo Empoasca choice assays were conducted by individually infiltrating physiologically relevant concentrations of synthetic CoP (7 μM), CP (100 μM) and FP (10 μM) into leaves of irMYC2 plants which were devoid of elicited phenolamides (FIG. 9 and FIG. 34).
Two replicates of the 650 RILs from a 26-parent MAGIC population and their 26 parental 5 lines were planted at the WCCER field station, Prescott, Arizona, USA. To elicit a standardized herbivory response, leaves of all RILs, which were in the early-flowering stage were wounded and immediately treated with diluted Manduca sexta oral secretions (W+OS) or left untreated (control) and harvested on dry ice at 1 h and 72h. One week after metabolite sampling, all plants of the field population were screened for natural Empoasca leafhopper numbers and damage; these leafhoppers had opportunistically sampled the N. attenuata plants from neighboring native cu-cumber hostplants. The mQTL and eQTL mapping between SNPs and the relative abundance of each compound or transcript using a set of 646 RILs of the MAGIC population was done with the R package software GAPIT using General linear models (GLM). The multi-omics co-association network was built from correlations among metabolomes, transcriptomes, phytohormones and SNPs. […] Metabolome diversity and specialization and metabolic specificity was calculated using information theory by consider-ing the Shannon entropy of the idMS/MS frequency distributions. […] OS-induced volatile emissions were collected using polydimethylsiloxane (PDMS) tubing from 650 MAGIC RILs planted in the main MPI-CE glasshouse and analyzed bythermal desorption-gas chromatography-mass spectrometry (TD-GC-MS). […]

In test [2] the test system is Empoasca decipiens. Description: In vitro Empoasca non-choice (direct feeding) assay on artificial diet. The note with it: physiologically relevant concentrations (CoP 7 μM, CP 100 μM, FP 10 μM) in 10% glucose solution. The test is classed as in vivo. As for the experimental part:
FIG. 18 Mortality rates of in vitro Empoasca non-choice assays (n=4, 25 Empoasca leafhoppers per replicate) in which Empoasca were fed for 6 h with either 1 μM m/z 347.19 synthesized by using NaPPO1/NaPPO2 and CP and Z3H and diluted in 10% glucose solution or with 10% glucose as control (top). Empoasca in planta choice assays (n=8) conducted with VIGS plants of EV, PPO1, PPO2 and AT1 (bottom).
To test if CPH is responsible for Empoasca resistance, E. decipiens were fed with physiologically relevant concentrations of 1 μM (estimated from field-collected elicited leaves) of NMR-confirmed CPH in diets containing 10% glucose in vitro. […] NaAT1 expression was silenced in N. attenuata plants using VIGS, which disrupted the production of both CP and the CPH (Li et al., Proc Natl Acad Sci USA 112, E4147-4155 (2015)) (FIG. 13).
Empoasca feeding assays: The survival rate of Empoasca feeding on artificial diet (10% 5 sucrose in water) supplemented with caffeoylputrescine (CP, 100 μM), coumaroylputrescine (CoP, 7 μM), feruloylputrescine (FP, 10 μM), or the m/z 347.19 hexenyl derivative of CP (CPH, 1 μM) was recorded every 1 h overnight. The artificial feeding devices consisted of a 50-mL Falcon tube with a 7-mm hole drilled into the conical bottom through which the leafhoppers were aspi-rated into the tube and which then was covered with Parafilm punctured with needles to create ventilation holes. The large opening of the Falcon tube was covered with a double layer of Parafilm containing the liquid diet (100 μL). The artificial feeding devices were placed upside down with the liquid diet side down on a White Light Box (STRATAGENE) to provide bottom-light illu-mination.

“Also recorded” adds a separate entry of the source.

Consider N-coumaroylputrescine [CoP], for which the “preference of Empoasca for irMYC2 plants” value in test [1] is given as “did not alter the preference; also recorded: not affecting leafhopper behavior or performance”. Moreover, the “changes in mortality rates of E. decipiens compared to glucose controls” value in test [2] is reported as “no significant changes in mortality rates; also recorded: not affecting leafhopper behavior or performance”.

The values above are taken from US20250051266A1, “Novel GLV-Phenolamide: Biosynthesis and Function in Protecting Plants from Herbivore Attack” (Max-Planck-Gesellschaft zur Förderung der Wissenschaften …, priority 2021, published 2025).
